“Also recorded” adds a separate entry of the source.
How the values were obtained:
[1] = test system: HEP G2; assay: IC50 with HEP G cells (toxicity); format: cell-based, human; conditions: not toxic
[2] = test system: Toxoplasma RPS13 delta; assay: RPS13 delta G0 arrested parasite in interferon gamma knockout mice; format: in vivo, Toxoplasma gondii; conditions: with tafenoquine 3 mg/kg single dose, minus tetracycline
Protocol: RPS13 Δ. This G0 arrested parasite persists in tissue culture for prolonged times in the absence of tetracycline. The parasite (x) was used to infect interferon gamma knockout mice. For the first y days no tetracycline was administered. After that time tetracycline was administered. Mice were observed and at the time they appeared ill or at the termination of the experiment they were euthanized and tissues fixed in formalin and stained with hematoxylin and eosin or immunoperoxidase stained and parasite burden was assessed.

[3] = test system: RH-YFP; assay: Assessment of compound degradation and microbicidal effect on Toxoplasma; format: cell-based, Toxoplasma gondii
Protocol: HFF were cultured in a 96-well plate and infected with RH-YFP as described above on Day 0, 20 μL of compound was added to 9 wells for each compound and concentration (3 conditions, 3 wells per condition). In condition I, media was removed and replaced with fresh media on Day 3. In condition II, media was removed and replaced with fresh media and more compound on Day 3. In condition III, media was not replaced on Day 3, nor was the compound refreshed. On Day 6, media was removed and replaced with clean media in all wells. On Day 3, 6, and 9 plate was read in the fluorimeter and analyzed graphically in Prism (GraphPad Software).

[4] = test system: CYP; assay: CYP profile; format: in vitro ADME
[5] = test system: Dd2 parasites; assay: Isobologram drug combination assay (fixed ratio, FIC); format: cell-based, Plasmodium falciparum; conditions: Dd2, fixed ratios
Protocol: Isobologram experiments were performed in similar fashion utilizing the modified fixed ratio methodology. Briefly, MJM170 and either atovaquone or cycloguanil or BRD6323 were mixed at multiple fixed volumetric ratios (10:0, 8:2, 6:4, 4:6, 2:8, and 0:10) and then serially diluted in 12-point 2-fold dilutions and dispensed in triplicate to 384-well assay plates and replicated on three different days. EC50 values were calculated as above, and FICs were calculated for each drug combination as described^S76. Synergy was defined as an FIC <1.0, additivity as FIC=1.0, and antagonism as FIC >1.0.

[6] = test system: S. cerevisiae wild type parental AD1-9 strain; assay: Yeast growth inhibition on glycerol medium, wild type; format: cell-based, Saccharomyces cerevisiae; conditions: 1 mM, 100, 5 and 1 μM
Protocol: (§1) Three S. cerevisiae strains were used: M221Q and M221F cytochrome b mutants and wild type. They share the same nuclear genetic background deriving from AD1-9 (kindly given by M. Ghislain, UCL, Belgium). AD1-9 harbors multiple deletions in the ABC transporter genes that render the strain more sensitive to drugs than standard yeast strains^S65.
Protocol: Yeast strains were grown over 48 hours at 33° C. in liquid YPG medium [1% yeast extract, 2% (wt/vol) peptone, and 3% (vol/vol) glycerol). Cultures were diluted to an OD600 of 0.05 and grown for 2 hrs. Cultures were then combined with YPG containing 6% melted agar for a total volume of 15-20 mL and poured onto OmniTray single-well rectangular plates that measured 86 mm by 128 mm (ThermoScientific). Filter paper disks (7 mm diameter, […]) were placed onto the cooled agar plates. […] A single disk with DMSO on each plate was used as a control. Plates were incubated at 33° C. Images were obtained after 4 days using GelDoc XR Imaging System (BioRad) and Quantity One software. Drug effect was assessed by the presence and size of a zone of inhibition around the disks.

[7] = test system: S. cerevisiae M221Q and M221F cytochrome b mutants; assay: Yeast growth inhibition, cytochrome b Qi mutants; format: cell-based, Saccharomyces cerevisiae
Excerpt: as §1
Cytochrome b mutant M221F was generated by mitochondrial transformation as described. M221 Q was selected as suppressor from a respiratory deficient mutant. Analysis of revertants from respiratory deficient mutants within the center N of cytochrome b in Saccharomyces cerevisiae.
Protocol: Yeast strains were grown over 48 hours at 33° C. in liquid YPG medium [1% yeast extract, 2% (wt/vol) peptone, and 3% (vol/vol) glycerol). Cultures were diluted to an OD600 of 0.05 and grown for 2 hrs. Cultures were then combined with YPG containing 6% melted agar for a total volume of 15-20 mL and poured onto OmniTray single-well rectangular plates that measured 86 mm by 128 mm (ThermoScientific). Filter paper disks (7 mm diameter, […]) were placed onto the cooled agar plates. […] Images were obtained after 4 days using GelDoc XR Imaging System (BioRad) and Quantity One software. Drug effect was assessed by the presence and size of a zone of inhibition around the disks.

[8] = test system: T. gondii RH and Prugniaud strain tachyzoites; assay: Tachyzoite infection in mice; format: in vivo, Toxoplasma gondii; conditions: for efficacy against Prugniaud (Type 2) tachyzoites in mice: 25 mg/kg daily
Protocol: Ability of compounds to abrogate tachyzoites multiplication was assessed using an in vivo imaging system (IVIS). To facilitate this we have T. gondii strains from each of the 3 major lineages expressing the luciferase gene. In these studies mice are injected intraperitoneally with tachyzoites and parasite proliferation followed up to 30 days post infection. Removal of brains at 30 days allows parasite quantitation by bioluminescence ex vivo using the IVIS. As an alternative method to improve screening efficiency and scalability it is possible for initial screening to use zebrafish with histopathology and visualization as shown in FIG. 6. Quantitation also was performed using QT PCR as described for mice or in translucent Casper zebrafish with parasites with fluors or luciferase to screen rapidly. Tachyzoites and bradyzoites in cysts were used for IP infection and compounds given intraperitoneally.
To test type II parasites, we used T. gondii Me49 and Prugneaud parasites^S39.

SMILES | toxicity to human HepG cells [1] [µM] | protection against RPS13 delta in combination with tafenoquine [2] | compound degradation over time ([3]; 6-day exposure in culture) | microbicidal effect ([3]; RH-YFP, media replaced) | CYP profile [4] | combination effect with BRD6323 [5] | combination effect with atovaquone [5] | combination effect with cycloguanil [5] | growth inhibition of wild type yeast [6] | growth inhibition of M221Q / M221F yeast [7] | efficacy against Prugniaud (Type 2) tachyzoites in mice [8] | efficacy against RH tachyzoites in mice ([8]; 25 mg/kg daily intraperitoneally, RH-YFP) | efficacy against Prugniaud (Type 2) tachyzoites in mice ([8]; listed as MJM 170) | toxicity in mice ([8]; 25 mg/kg for 5 days)
Cc1[nH]c2c(c(=O)c1-c1ccc(Oc3ccc(OC(F)(F)F)cc3)cc1)CCCC2 [JAG21, 2-methyl-3-(4-(4-(trifluoromethoxy)phenoxy)phenyl)-5,6,7,8-tetrahydroquinolin-4(1H)-one] | > 17 | both needed to contain RPS 13Δ; also recorded: protect against a G0 arrested parasite; also recorded: superior to either alone | did not appear that the compound was being degraded over time | Neither compound was found to be microbicidal | clean | – | – | – | – | – | – | – | – | –
Cc1[nH]c2c(c(=O)c1-c1ccc(Oc3ccccc3)cc1)CCCC2 [MJM170] | – | – | – | – | – | Antagonism | modest synergy; also recorded: modestly synergistic; also recorded: Slight synergy | additive effect | effective | resistant | highly efficacious | highly efficacious; also recorded: eliminates active infection | reduces Type 2 parasites | without toxicity

Source: patent US11414385B2, “Compounds and methods for treating, detecting, and identifying compounds to treat apicomplexan parasitic diseases” (The University of Chicago, priority 2015, dated 2022)
